Assay results reported in PubChem BioAssay AID789 (SRMLSC, 2007).
pIC50: −log10 of the molar value. Activity calls are given as the source filed them. How the calls were made is not given here.

Tests used:
[1] = growth inhibition of apl2Δ yeast, dose response, selectivity assay for post-Golgi transport modulator project, S. cerevisiae, secondary screen, background strain comparison (AID 789); details: S. cerevisiae background (wild-type parent) strain growth inhibition
[2] = test system: S. cerevisiae apl2Δ mutant growth inhibition; experiment: as above

## Cc1sc(NC(=O)c2ccco2)c(C(c2cccnc2)N2CCC(C)CC2)c1C (stereo not given)
[1]
  pIC50: 5.24
[2]
  IC50: 13.9 µM (inactive)

## CCOC(=O)NC(Nc1ccc(S(N)(=O)=O)cc1)(C(=O)OCC)C(F)(F)F (stereo not given)
[1]
  pIC50: < 5.00
[2]
  IC50: > 10 µM (inactive)

## O=C(Nc1nnc(-c2ccc(Cl)cc2)o1)c1ccccc1Br
[1]
  pIC50: 4.88
[2]
  IC50: > 10 µM (inactive)

## CCOC(=O)Cc1c(C)c2ccc(N(CC)CC)cc2oc1=O
[1]
  pIC50: < 5.00
[2]
  IC50: > 10 µM (inactive)

## CCC(C)(C)n1nnnc1C(c1cc2cc3c(cc2[nH]c1=O)OCO3)N1CCN(C)CC1 (stereo not given)
[1]
  pIC50: < 5.00
[2]
  IC50: > 10 µM (inactive)

## Cc1ccc(-c2csc3nnc(SCC(=O)Nc4cccc(C)n4)n23)cc1
[1]
  pIC50: < 5.00
[2]
  IC50: > 10 µM (inactive)

## N#Cc1nc(COc2ccc(-c3ccccc3)cc2)oc1NCCCN1CCOCC1
[1]
  pIC50: 4.81
[2]
  IC50: 17.2 µM (inactive)

## COc1cccc(-c2cc(C(=O)N3CCN(C(c4ccccc4)c4ccccc4)CC3)no2)c1
[1]
  pIC50: < 5.00
[2]
  IC50: > 10 µM (inactive)

## O=C1CN(C(=O)CSc2nnc(-c3ccccc3)n2Cc2ccc3c(c2)OCO3)c2ccccc2N1
[1]
  pIC50: < 5.00
[2]
  IC50: > 10 µM (inactive)

## CCc1cc2c(=O)c(Oc3ccccc3F)c(C)oc2c(CN(C)C)c1O
[1]
  pIC50: < 5.00
[2]
  IC50: > 10 µM (inactive)

## CCC(=O)c1ccc(N2CCN(C(=O)c3ccc(Br)cc3)CC2)c(F)c1
[1]
  pIC50: < 5.00
[2]
  IC50: > 10 µM (inactive)

## CCCn1nc([N+](=O)[O-])c(C(C#N)c2nc3ccccc3s2)c(Cl)c1=O (stereo not given)
[1]
  pIC50: 5.67
[2]
  IC50: 13.7 µM (inactive)

## CCOC(=O)c1c(NC(=O)CN2CCCCC2)sc2c1CCC(C=O)=C2Cl
[1]
  pIC50: < 5.00
[2]
  IC50: > 10 µM (inactive)

## c1coc(CNc2nc(N3CCCCC3)nc3ccccc23)c1
[1]
  pIC50: < 5.00
[2]
  IC50: > 10 µM (inactive)

## Cc1ccc(N2CCN(S(=O)(=O)N3CCCCCC3)CC2)cc1Cl
[1]
  pIC50: < 5.00
[2]
  IC50: > 10 µM (inactive)

## N#CC1=C(N)NC(SCc2ccc(F)cc2)=C(C#N)C12CCCCC2
[1]
  pIC50: 4.79
[2]
  pIC50: 5.11

## COc1ccc(-c2cc(N)n(S(=O)(=O)c3c(F)c(F)c(F)c(F)c3F)n2)cc1OC
[1]
  pIC50: 5.97
[2]
  IC50: 9.68 µM (inactive)

## Cc1c(Cl)c([N+](=O)[O-])nn1Cc1ccc(C(=O)N/N=C\c2cccc(Br)c2)o1
[1]
  pIC50: < 5.00
[2]
  IC50: > 10 µM (inactive)

## COc1ccc(CN(C(=O)Cc2cccs2)C(C(=O)NC2CCCC2)c2ccncc2)cc1 (stereo not given)
[1]
  pIC50: < 5.00
[2]
  IC50: > 10 µM (inactive)

## Cc1ccc(C2(C(F)(F)F)N=C3Sc4cc(C)cc(C)c4N3C(=O)N2)cc1 (stereo not given)
[1]
  pIC50: 5.97
[2]
  IC50: 1.73 µM (inactive)

## Cc1cc(C(C)(C)C)ccc1OCCN1CCCC1
[1]
  pIC50: < 5.00
[2]
  IC50: > 10 µM (inactive)

## Cc1ccc2cc(CN(CCO)Cc3nnnn3Cc3ccc(F)cc3)c(=O)[nH]c2c1
[1]
  pIC50: < 5.00
[2]
  IC50: > 10 µM (inactive)

## CC(C)OC(=O)CSc1nnc(-c2ccc(Cl)cc2)n1N
[1]
  pIC50: < 5.00
[2]
  IC50: > 10 µM (inactive)

## Cc1cc([N+](=O)[O-])c(-c2ccc(/C=N/n3cnnc3)o2)cc1Cl
[1]
  pIC50: 6.87
[2]
  IC50: 0.526 µM (inactive)

## CC1CC(C)CN(CC(C)(C)NS(=O)(=O)c2ccc(Cl)cc2)C1 (stereo not given)
[1]
  pIC50: < 5.00
[2]
  IC50: > 10 µM (inactive)

## Cc1ccc(CN2CCN(/N=C/c3cc(Br)ccc3O)CC2)cc1
[1]
  pIC50: < 5.00
[2]
  IC50: > 10 µM (inactive)

## O=C(NCc1ccc2c(c1)OCO2)c1ccc(-n2cnnn2)cc1
[1]
  pIC50: < 5.00
[2]
  IC50: > 10 µM (inactive)

## Cc1cc(C)nc(N/N=C/C(Cl)=C/c2ccccc2)n1
[1]
  pIC50: < 5.00
[2]
  IC50: > 10 µM (inactive)

## NC(=O)c1c(NC(=O)CN2C(=O)CCC2=O)sc2c1CCCCC2
[1]
  pIC50: < 5.00
[2]
  IC50: > 10 µM (inactive)

## OC(c1ccc(Cl)cc1Cl)C(Cc1cccnc1)n1cncn1 (stereo not given)
[1]
  pIC50: < 5.00
[2]
  IC50: > 10 µM (inactive)

## CC(C)c1ccc(C2C3CSCC=C3C(C#N)=C(N)C2(C#N)C#N)cc1 (stereo not given)
[1]
  pIC50: 6.07
[2]
  IC50: 1.84 µM (inactive)

## Cc1cccc2cc(C#N)c(NCCCn3ccnc3)nc12
[1]
  pIC50: < 5.00
[2]
  IC50: > 10 µM (inactive)

## COc1ccc(C2C3=C(CCCC3=O)Nc3nc(-c4cc(OC)c(OC)c(OC)c4)nn32)cc1OC (stereo not given)
[1]
  pIC50: < 5.00
[2]
  IC50: > 10 µM (inactive)

## Clc1ccc(Cn2nnc(-c3ccc(CN4CCOCC4)cc3)n2)cc1
[1]
  pIC50: < 5.00
[2]
  pIC50: 4.72

## O=C(COc1ccc(Br)cc1F)NC1CCN(Cc2ccccc2)CC1
[1]
  pIC50: < 5.00
[2]
  IC50: > 10 µM (inactive)

## O=c1c2cccc3c2c(nn1CN1CCOCC1)-c1ccccc1-3
[1]
  pIC50: < 5.00
[2]
  IC50: > 10 µM (inactive)

## Cc1c(Cc2ccccc2)c(=O)oc2c(C)c(OCc3nn[nH]n3)ccc12
[1]
  pIC50: < 5.00
[2]
  IC50: > 10 µM (inactive)

## CC(NC(=O)CSc1nc2c(cc1C#N)CN(C)CC2)c1ccccc1 (stereo not given)
[1]
  pIC50: < 5.00
[2]
  IC50: > 10 µM (inactive)

## CCOC(=O)C1CCN(Cc2cnc(Oc3ccc(Cl)cc3C)s2)CC1
[1]
  pIC50: < 5.00
[2]
  IC50: > 10 µM (inactive)

## Cc1cccnc1Nc1nc(-c2ccccn2)cs1
[1]
  pIC50: < 5.00
[2]
  IC50: > 10 µM (inactive)

## CC(=O)NC1C(c2nc3ccccc3s2)=C(c2ccccc2)C(=O)N1c1ccc(C)cc1 (stereo not given)
[1]
  pIC50: 5.72
[2]
  IC50: 2.89 µM (inactive)

## Clc1ccc2[nH]c3c(NCC4CCCO4)ncnc3c2c1 (stereo not given)
[1]
  pIC50: < 5.00
[2]
  IC50: > 10 µM (inactive)

## Cc1ccc(SC(=O)COc2ccc(C)c(C)c2)cc1
[1]
  pIC50: < 5.00
[2]
  IC50: > 10 µM (inactive)

## O=C(COc1ccc(Cl)cc1)Nc1ccc(N2CCN(C(=O)c3ccco3)CC2)cc1
[1]
  pIC50: < 5.00
[2]
  IC50: > 10 µM (inactive)

## O=C(Nc1nc(-c2ccccn2)cs1)c1ncc(Cl)c(Cl)c1Cl
[1]
  pIC50: 4.88
[2]
  IC50: 19.3 µM (inactive)

## N#CC1=C(N)C(C#N)(C#N)C(c2cccnc2)C2CC(c3ccccc3)CC=C12 (stereo not given)
[1]
  pIC50: 5.53
[2]
  IC50: 4.06 µM (inactive)

## Cc1cc(N2C(=O)C3CCCN3C2c2sccc2C)no1 (stereo not given)
[1]
  pIC50: < 5.00
[2]
  IC50: > 10 µM (inactive)

## CCN(CC)CCCN(Cc1cc2cc3c(cc2[nH]c1=O)OCCO3)C(=O)Nc1ccc(F)cc1
[1]
  pIC50: < 5.00
[2]
  IC50: > 10 µM (inactive)

## Cn1c(=O)cc(NCc2ccccc2)[nH]c1=O
[1]
  pIC50: < 5.00
[2]
  IC50: > 10 µM (inactive)

## O=C(COc1ccc(Cl)cc1Cl)N1CCN(C/C=C/c2ccccc2)CC1
[1]
  pIC50: 5.15
[2]
  pIC50: 5.31

## O=S(=O)(c1cnccc1N1CCN(/N=C/c2ccc(Br)cc2)CC1)N1CCCCC1
[1]
  pIC50: < 5.00
[2]
  IC50: > 10 µM (inactive)

## COc1ccc(C2=NC(C(F)(F)F)(C(F)(F)F)c3c(n(C)c(=O)n(C)c3=O)N2)cc1
[1]
  pIC50: < 5.00
[2]
  IC50: > 10 µM (inactive)

## O=C(Nc1cc(C(F)(F)F)ccc1-n1cncn1)c1ccc(-c2ccccc2)cc1
[1]
  pIC50: < 5.00
[2]
  IC50: > 10 µM (inactive)

## CCCC(=O)N1CCN(c2ccc(NC(=O)c3cc4ccccc4o3)cc2Cl)CC1
[1]
  pIC50: 4.72
[2]
  pIC50: 4.90

## COc1ccccc1N1CCN(Cc2ccccc2F)CC1
[1]
  pIC50: < 5.00
[2]
  IC50: > 10 µM (inactive)

## CCCCCOc1ccc(Cl)cc1CN1CCOCC1
[1]
  pIC50: < 5.00
[2]
  IC50: > 10 µM (inactive)

## Cc1ccc(C(=O)NCc2occc2C(=O)O)o1
[1]
  pIC50: < 5.00
[2]
  IC50: > 10 µM (inactive)

## O=C(Nc1cccc(Cl)c1)N1CCN(C/C=C/c2ccccc2)CC1
[1]
  pIC50: < 5.00
[2]
  IC50: > 10 µM (inactive)

## CCc1ccc(C(=O)/C=C/c2ccc([N+](=O)[O-])o2)cc1
[1]
  pIC50: 4.68
[2]
  IC50: > 10 µM (inactive)

## CCCn1c(SCc2cc(=O)oc3ccc4ccccc4c23)n[nH]c1=O
[1]
  pIC50: < 5.00
[2]
  IC50: > 10 µM (inactive)

## COc1cccc(OCCCCN2CC(C)OC(C)C2)c1 (stereo not given)
[1]
  pIC50: < 5.00
[2]
  IC50: > 10 µM (inactive)

## Cc1cccc(CS(=O)(=O)Cc2ccc(C(=O)NCCCN3CCCC3)o2)c1
[1]
  pIC50: < 5.00
[2]
  IC50: > 10 µM (inactive)

## O=C(OCn1ncc(Cl)c(Cl)c1=O)c1ccccc1Cl
[1]
  pIC50: 4.78
[2]
  IC50: > 10 µM (inactive)

## CCOC(=O)c1c(-n2c(C)cc(C=C3C(=O)NC(=S)NC3=O)c2C)sc2c1CCCC2
[1]
  pIC50: 4.94
[2]
  IC50: > 10 µM (inactive)

## O=C(O)c1cc(-c2ccc(/C=N/Nc3ccc(Cl)cc3)o2)ccc1Cl
[1]
  pIC50: 4.79
[2]
  pIC50: 4.81

## CS(=O)(=O)N1CCC(C(=O)NCCN2CCN(Cc3ccccc3)CC2)CC1
[1]
  pIC50: < 5.00
[2]
  IC50: > 10 µM (inactive)

## CCOc1cccc(C(=O)Nc2cccnc2)c1
[1]
  pIC50: < 5.00
[2]
  IC50: > 10 µM (inactive)

## CCSc1nnc(NC(=O)NCC(F)(F)F)s1
[1]
  pIC50: < 5.00
[2]
  IC50: > 10 µM (inactive)

## COCCNc1cc(C)nc2c3c(C)cc(C)nc3nn12
[1]
  pIC50: < 5.00
[2]
  IC50: > 10 µM (inactive)

## Cn1c2ccc(Cl)cc2c2nc3ccccc3nc21
[1]
  pIC50: < 5.00
[2]
  IC50: > 10 µM (inactive)

## O=C(NC1CCN(Cc2ccccc2)CC1)C1COc2ccccc2O1 (stereo not given)
[1]
  pIC50: < 5.00
[2]
  IC50: > 10 µM (inactive)

## COc1ccc(NC(=S)NC(NC(=O)c2ccc(Cl)cc2Cl)C(Cl)(Cl)Cl)c([N+](=O)[O-])c1 (stereo not given)
[1]
  pIC50: < 5.00
[2]
  IC50: > 10 µM (inactive)

## O=C(NCc1ccc2c(c1)OCO2)c1ccc(CS(=O)(=O)c2cccc(C(F)(F)F)c2)o1
[1]
  pIC50: < 5.00
[2]
  IC50: > 10 µM (inactive)

## Cc1ccc(S(=O)(=O)N(CC(=O)N2CCC(C(N)=O)CC2)c2cccc(C(F)(F)F)c2)cc1
[1]
  pIC50: < 5.00
[2]
  IC50: > 10 µM (inactive)

## CC1CCCN(CCOCCOc2ccc(Cl)cc2Br)C1 (stereo not given)
[1]
  pIC50: < 5.00
[2]
  pIC50: 4.66

## Clc1ccc(-c2cnc(Oc3ccccc3)nc2)cc1
[1]
  pIC50: < 5.00
[2]
  IC50: > 10 µM (inactive)

## COc1ccc(Cl)cc1NC(=O)C(C)N1CCN(C/C=C/c2ccccc2)CC1 (stereo not given)
[1]
  pIC50: 4.82
[2]
  IC50: 20.4 µM (inactive)

## N=c1nc(N)nc2n1NC(c1ccc(F)cc1)=CS2
[1]
  pIC50: < 5.00
[2]
  IC50: > 10 µM (inactive)

## c1ccc(-c2ccc(-c3cnc4n3CCCCC4)cc2)cc1
[1]
  pIC50: < 5.00
[2]
  IC50: > 10 µM (inactive)

## COc1ccc(N2CCN(C(=O)CCNS(=O)(=O)c3ccc(Br)s3)CC2)cc1
[1]
  pIC50: < 5.00
[2]
  IC50: > 10 µM (inactive)
